# Experimental data as given in publication PMC7771544 (ChemMedChem, 2016).
# pIC50: −log10 of the molar value.
# How the values were obtained:
# MST3 = MST3 (Homo sapiens, UniProt Q9Y6E0); experiment: 33P-radiolabeled kinase assay; type: biochemical
# CDK1 = settings: cited from earlier work
# CDK2 = settings: cited from earlier work
# MST3, sequence (Q9Y6E0 1-431 isoform Q9Y6E0-2): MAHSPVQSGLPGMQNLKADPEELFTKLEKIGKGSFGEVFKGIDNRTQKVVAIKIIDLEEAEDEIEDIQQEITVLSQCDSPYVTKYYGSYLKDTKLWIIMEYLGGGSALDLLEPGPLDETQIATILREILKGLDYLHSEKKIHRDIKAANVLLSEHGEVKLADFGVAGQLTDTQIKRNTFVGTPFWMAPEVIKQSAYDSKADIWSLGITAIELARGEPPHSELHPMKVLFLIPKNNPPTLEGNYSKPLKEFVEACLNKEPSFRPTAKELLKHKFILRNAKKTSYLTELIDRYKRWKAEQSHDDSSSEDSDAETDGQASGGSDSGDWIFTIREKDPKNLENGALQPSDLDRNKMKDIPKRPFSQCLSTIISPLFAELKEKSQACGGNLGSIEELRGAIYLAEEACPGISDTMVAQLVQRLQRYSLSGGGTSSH
compound,measurement,setting,value
COCCOc1ccc2c(c1)ncn2-c1ccc2cccc(N3CCC(N)CC3)c2n1 [CP-673451],pIC50,MST3,6.59
CCN(CC)CCNC(=O)c1c(C)[nH]c(/C=C2\C(=O)Nc3ccc(F)cc32)c1C [sunitinib],fold difference in MST3 inhibitory activity,MST3; less active than the related compound(s) of the same scaffold,20 fold
COc1cc(Nc2c(C#N)cnc3cc(OCCCN4CCN(C)CC4)c(OC)cc23)c(Cl)cc1Cl [bosutinib],pIC50,MST3,8.52
CDK1/2 inhibitor III,activity against CDK1,CDK1,sub-nanomolar
same,activity against CDK2,CDK2,sub-nanomolar
